Format in all cases: physicochemical
Data set [1] can be described thus: Viscosity of the oligomers (Brookfield RVDV-II+ Pro, #28 spindle). The note with it: 20 rpm. As for the experimental part: The viscosity of the oligomers was measured using a Brookfield RVDV-II+ Pro instrument at a temperature of 60°C using a #28 spindle and a rotational speed of 20 rpm. Moreover, the viscosity of the oligomers was measured with a Brookfield RVDV-II+ Pro instrument at a temperature of 25°C using a #28 spindle and a rotational speed of 10 rpm.

Data set [2] is described as follows: Epoxy Equivalent Weight (EEW), ASTM D1763-1981. As for the experimental part:
The EEW was measured in accordance with ASTM D1763-1981.

Data set [3] in a line: Refractive index (RX-7000 α, ATAGO). As to the method:
The refractive index of the oligomers was measured using a RX-7000 α from AT AGO at a temperature of 25°C.

The nature of data set [4]: Storage stability (thermal test, viscosity before/after 48 hours at 65°C, alone or mixed with ADH). As for the experimental part: The storage stability tests were performed by placing the oligomer to be tested, alone or mixed with ADH (as a curing agent), at 65°C for 48 hours (thermal test), and measuring their viscosity (cps@60C).
The nature of data set [5]: Mechanical performance of cured compositions (tensile strength, modulus, elongation at break, ASTM D638). As for the experimental part:
These mechanical properties were measured in accordance with ASTM D638.
The mechanical performance tests were performed on compositions comprising the oligomer to be tested mixed with SR506, photoinitiators and/or curing agents, as detailed in Tables 4, 5 and 6 below.
Tests UV + Thermal cure: 80 wt.% of oligomers were mixed with 20 wt. % of SR506. To this mixture were added 3 wt.% of TPO and 1 wt.% of 2E4MZ (based on the total weight of oligomers + SR506).
Tests UV cure: 80 wt.% of oligomers were mixed with 20 wt. % of SR506. To this mixture was added 3 wt.% of TPO (based on the total weight of oligomers + SR506).
Tests Thermal cure: 80 wt.% of oligomers were mixed with 20 wt.% of SR506. To this mixture was added 1 wt.% of 2E4MZ (based on the total weight of oligomers + SR506).

The mark [6] stands for this setting: Thermal Cure, 80 wt.% oligomer + 20 wt.% SR506, then 1 wt.% 2E4MZ.
Setting [7] is: UV + Thermal Cure, 80 wt.% oligomer + 20 wt.% SR506, then 3 wt.% TPO + 1 wt.% 2E4MZ.
[8] abbreviates: UV Cure, 80 wt.% oligomer + 20 wt.% SR506, then 3 wt.% TPO.

As to `C=CC(=O)OCC(O)COc1ccc(C(C)(C)c2ccc(OCC3CO3)cc2)cc1` (stereo not drawn) [Reference], the “Viscosity (60°C)” value in data set [1] is listed as 2390 mPa.s; in data set [1] (listed as Comparative oligomer), “around 2390 mPa.s”. Further, the EEW in data set [2] (Table 2) was 1020 g/ep; in data set [2] (synthesis text) it was 1020 g/eq. Moreover, the “Refractive Index (25°C)” value in data set [3] is 1.5633. Besides, the “viscosity change after storage” value in data set [4] (65°C for 48h, not mixed with ADH) was “no significant viscosity change”. Further, the “Viscosity (cps@60C) After storage 48h, 65°C” value in data set [4] (after storage 48h at 65°C, measured at 60C) is on record as 2,450 cps. The “Viscosity (cps@60C) Initial” value in data set [4] (initial, measured at 60C) was 2,390 cps. Further, the “state of composition after storage” value in data set [4] (mixed with 20 wt.% ADH, 48h at 65°C) is recorded as “becomes gelled”. Also, the “Elongation at break (%)” value in data set [5] (setting [6]) is 2.095%; in data set [5] (setting [7]), 1.86%; in data set [5] (setting [8]) it was 2.32%. Further, the Tensile modulus in data set [5] (setting [6]) is recorded as 2,037; in data set [5] (setting [7]) it was 4027; in data set [5] (setting [8]) it was 2722. Also, the “Tensile strength (Mpa)” value in data set [5] (setting [6]) was 43.33 Mpa; in data set [5] (setting [7]), 73.39 Mpa; in data set [5] (setting [8]), 62.9 Mpa.
